The results in this text go back to patent publication US10709129B2, “Synergistic combination of bis-(3-aminopropyl)dodecylamine and sorbic acid” (DDP SPECIALTY ELECTRONIC MATERIALS US, INC., priority 2016, dated 2020).

In assay [1] the test system is Candida albicans (DSMZ#1386). Description: Minimum Inhibitory Concentration (MIC) test and synergy index (Kull method), TSB pH 5. The assay is classed as cell-based. To be noted: DSM 1386 / DSMZ1386, Candida albicans DSM# 1386, 30° C., 72 hours, read-out: MIC results for single biocides. Here is the method: (§1) The synergism of the biocides combination of the present invention was determined using the Minimum Inhibitory (MIC) test method described by Kull, F. C., et. al in Applied Microbiology 9:538-541 (1961). The formula to calculate the synergy index (SI) is SI=Qa/QA+Qb/QB Where • QA=minimum inhibitory concentration in ppm of compound A acting alone • Qa=minimum inhibitory concentration in ppm of compound A in the mixture. • QB=minimum inhibitory concentration in ppm of compound B acting alone. • Qb=minimum inhibitory concentration in ppm of compound B in the mixture. […] The Minimum Inhibitory Concentration Test (MIC) is designed to evaluate the lowest concentration of a biocide, biocide blend or biocide combination to prevent bacteria growing in a defined broth. […] The synergy testing was carried out as follows: • 1. The test was executed with a Hamilton MLStarPlus robot using automated turbidity reading with BioTek Synergy H4 plate reader. • 2. […] Reading of the results was carried out by measuring absorbance at 600 nm for each sample at the beginning of the test (tzero) and after incubation (tendpoint). tendpoint was chosen at 48 hours for bacteria and 72 hours for yeast. The difference in absorbance between tendpoint and tzero was used to determine growth (Δ>0.2) or no growth (Δ≤0.2).

The subject of assay [2] is Pseudomonas aeruginosa (DSMZ#939). Described as above. Type of assay: cell-based. To be noted: DSM 939 / DSMZ939, Pseudomonas aeruginosa DSM# 939, 30° C., 48 hours, read-out: MIC results for single biocides. Here is the method: as §1

One may read the MIC as the least concentration at which growth counts as inhibited. `C/C=C/C=C/C(=O)O` [SA, sorbic acid]: the MIC in assay [1] came out at 725 µg/mL; in assay [2], 1230 µg/mL.
Taken in the same sequence, the figures for `CCCCCCCCCCCCN(CCCN)CCCN` [BDA, bis-(3-aminopropyl)dodecylamine] were ≥ 260 µg/mL and 200 µg/mL.
